Reference: article PMC7180939, “Antiplasmodial Activity of p-Substituted Benzyl Thiazinoquinone Derivatives and Their Potential against Parasitic Infections” (Molecules, 2020)
Read-outs that look alike come from different tables or passages of the source.

Experiments:
[1] = system: chloroquine-sensitive (D10) strain of P. falciparum; test: P. falciparum drug susceptibility assay (pLDH), D10 strain; type: cell-based; settings: Plasmodium falciparum, read-out: D10 IC50
Method: (§1) All reagents were from Sigma Aldrich, Milan, Italy unless indicated otherwise. As reported in the literature, the chloroquine-sensitive (D10) and chloroquine-resistant (W2) strains of P. falciparum were maintained in vitro at 5% hematocrit medium (constituted of human type Apositive red blood cells) in RPMI 1640 (EuroClone, Celbio, Italy) with the addition of 1% AlbuMax (Invitrogen, Milan, Italy), 0.01% hypoxanthine, […], and […]. The resulting cultures were incubated at 37 °C in a mixture of standard gas with the following composition: 1% O2, 5% CO2, and 94% N2. […] Drugs were placed in 96 well flat-bottom microplates and a series of dilutions performed. Asynchronous cultures (parasitemia of 1–1.5%; 1% final hematocrit) were aliquoted into the plates and incubated for 72 h at 37 °C. The cultures were washed with PBS before the chemosensitivity assay while the parasite growth was determined spectrophotometrically (OD650) by measuring the parasite lactate dehydrogenase (pLDH) activity. These measurements were made according to the modified version of Makler’s method both in control and drug-tested cultures. Antiplasmodial activity is expressed as 50% inhibitory concentrations (IC50), which means the dose of compounds necessary to inhibit cell growth by 50%. Each IC50 value is the mean standard deviation of at least three separate experiments performed in duplicate.

[2] = system: chloroquine-resistant (W2) strain of P. falciparum; test: P. falciparum drug susceptibility assay (pLDH), W2 strain; type: cell-based; settings: Plasmodium falciparum, read-out: W2 IC50
Method: as §1

[3] = system: human microvascular endothelial cells (HMEC-1); test: Cytotoxicity assay on HMEC-1 cell line; type: cell-based; settings: cytotoxicity on HMEC-1 cell line
[4] = system: embryonic murine fibroblasts (NIH-3T3 cell line); design: method as in PMID 31718145; settings: cytotoxicity on NIH-3T3 cell line; cited from earlier work
[5] = system: P. falciparum; design: method as in PMID 30640072; settings: D10 and W2 strains, earlier work; cited from earlier work
[6] = system: S. mansoni; design: method as in PMID 31718145; settings: schistosomula, adult worm pairs, juvenile parasites, eggs; cited from earlier work
[7] = design: method as in PMID 31718145; settings: cited from earlier work
[8] = CQ-sensitive D10 strain, pLDH assay, 72 h, mean ± SD of three experiments in duplicate
[9] = CQ-resistant W2 strain, pLDH assay, 72 h, mean ± SD of three experiments in duplicate

Row | Structure (SMILES) | IC50 [1, 8] | IC50 [2, 9] | IC50 [3] | other results
1 | CC[C@@]1(O)C(=O)OCc2c1cc1n(c2=O)Cc2cc3ccccc3nc2-1 [Camptothecin, reference compound] | – | – | 18 nM | –
2 | CCN(CC)CCCC(C)Nc1ccnc2cc(Cl)ccc12 (stereo not shown) [CQ, chloroquine, reference compound] | – | – | – | IC50 ([1]; D10, 72 h): 40 nM; IC50 ([2]; W2, 72 h): 540 nM
3 | COC1=C(Cc2ccccc2)C(=O)C=CC1=O [Compound 23] | – | – | – | activity against S. mansoni (in words) [6]: inactive; antiplasmodial activity (in words) [5]: absence of activity
4 | COC1=C(Cc2ccc(C(F)(F)F)cc2)C(=O)C2=C(NCCS2(=O)=O)C1=O [Compound 25] | 5060 ± 1680 nM | 5020 ± 1810 nM | 20400 ± 1600 nM | –
5 | COC1=C(Cc2ccc(OC)cc2)C(=O)C2=C(NCCS2(=O)=O)C1=O [Compound 26] | 1210 ± 200 nM | 1220 ± 240 nM | 17900 ± 1100 nM | IC50 [4]: > 100000 nM; cLogD [7]: 0.33

The next lines start with results.

Row | IC50 [1, 8] | IC50 [2, 9] | Structure (SMILES) | IC50 [3] | other results
6 | 1630 ± 350 nM | 1900 ± 1050 nM | COC1=C(Cc2ccc(Cl)cc2)C(=O)C2=C(NCCS2(=O)=O)C1=O [Compound 24] | 8510 ± 760 nM | –
7 | 600 ± 210 nM | 700 ± 220 nM | COC1=C(Cc2ccccc2)C(=O)C2=C(NCCS2(=O)=O)C1=O [Compound 22] | 17600 ± 1400 nM | IC50 [4]: 88600 ± 7700 nM; antiplasmodial activity (in words) [5]: active in the range of low-micromolar concentrations
8 | 1120 ± 400 nM | 810 ± 190 nM | COC1=C(Cc2ccc(OC(F)(F)F)cc2)C(=O)C2=C(NCCS2(=O)=O)C1=O [Compound 27] | 3590 ± 720 nM | cLogD [7]: 1.37
